Experimental data as given in ChEMBL document CHEMBL1201861, “Genomics of Drug Sensitity in Cancer screening data, Wellcome Trust Sanger Institute”.

Columns and labels:
Assay in all cases: cells
LB2518-MEL = type: functional, cell-based; conditions: Homo sapiens;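 also: growth inhibition of human LB2518-MEL cells, measured with a cell viability assay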
Description: SANGER: Inhibition of human LB2518-MEL cell growth in a cell viability assay.

TE-12 = type: functional, cell-based, Homo sapiens; conditions: Homo sapiens, TE-12;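 also: growth inhibition of TE-12 cells, read out by a cell viability assay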
Description: SANGER: Inhibition of human TE-12 cell growth in a cell viability assay.

HDLM-2 = type: functional, cell-based, Homo sapiens; conditions: Homo sapiens, HDLM-2;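 also: cell viability assay measuring suppression of HDLM-2 proliferation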
Description: SANGER: Inhibition of human HDLM-2 cell growth in a cell viability assay.

GT3TKB = type: functional, cell-based, Homo sapiens; conditions: Homo sapiens, GT3TKB;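 also: growth inhibition of the cell line, read out with a cell viability assay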
Description: SANGER: Inhibition of human GT3TKB cell growth in a cell viability assay.

A3-KAW = type: functional, cell-based, Homo sapiens; conditions: Homo sapiens, A3-KAW;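 also: growth inhibition of human A3-KAW cells, read out with a cell viability assay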
Description: SANGER: Inhibition of human A3-KAW cell growth in a cell viability assay.

TE-10 = type: functional, cell-based, Homo sapiens; conditions: Homo sapiens, TE-10;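 also: growth inhibition of TE-10 cells, measured by a cell viability assay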
Description: SANGER: Inhibition of human TE-10 cell growth in a cell viability assay.

NCI-H1395 = type: functional, cell-based, Homo sapiens; conditions: Homo sapiens, NCI-H1395;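 also: cell viability assay read-out quantifying reduced proliferation of human NCI-H1395 cells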
Description: SANGER: Inhibition of human NCI-H1395 cell growth in a cell viability assay.

COLO-668 = type: functional, cell-based, Homo sapiens; conditions: Homo sapiens, COLO-668
Description: SANGER: Inhibition of human COLO-668 cell growth in a cell viability assay.

GB-1 = type: functional, cell-based, Homo sapiens; conditions: Homo sapiens, GB-1;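 also: growth of GB-1 cells judged by a viability assay, IC50 marks the concentration inhibiting growth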
Description: SANGER: Inhibition of human GB-1 cell growth in a cell viability assay.

MS-1 = type: functional, cell-based, Homo sapiens; conditions: Homo sapiens, MS-1;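 also: growth inhibition of MS-1 cells, read out by cell viability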
Description: SANGER: Inhibition of human MS-1 cell growth in a cell viability assay.

LC-2-ad = type: functional, cell-based, Homo sapiens; conditions: Homo sapiens, LC-2-ad;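 also: growth inhibition of human LC-2-ad cells, read out with a cell viability assay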
Description: SANGER: Inhibition of human LC-2-ad cell growth in a cell viability assay.

MV4-11 = type: functional, cell-based, Homo sapiens, MV-4-11; conditions: Homo sapiens, MV4-11;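 also: cell viability readout measuring growth inhibition of human MV-4-11 cells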
Description: SANGER: Inhibition of human MV-4-11 cell growth in a cell viability assay.

OS-RC-2 = type: functional, cell-based, Homo sapiens; conditions: Homo sapiens, OS-RC-2;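 also: growth inhibition of human OS-RC-2 cells, measured by a cell viability assay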
Description: SANGER: Inhibition of human OS-RC-2 cell growth in a cell viability assay.

A4-Fuk = type: functional, cell-based, Homo sapiens; conditions: Homo sapiens, A4-Fuk;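 also: growth inhibition of A4-Fuk cells, read out by a cell viability assay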
Description: SANGER: Inhibition of human A4-Fuk cell growth in a cell viability assay.

NCI-H1299 = type: functional, cell-based; conditions: Homo sapiens;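 also: growth inhibition of human NCI-H1299 cells, read out by a cell viability assay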
Description: SANGER: Inhibition of human NCI-H1299 cell growth in a cell viability assay.

KINGS-1 = type: functional, cell-based, Homo sapiens; conditions: Homo sapiens, KINGS-1;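 also: cell viability assay measuring suppression of KINGS-1 cell growth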
Description: SANGER: Inhibition of human KINGS-1 cell growth in a cell viability assay.

BB65-RCC = type: functional, cell-based, Homo sapiens; conditions: Homo sapiens, BB65-RCC;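 also: growth inhibition of the cell line, measured with a cell viability assay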
Description: SANGER: Inhibition of human BB65-RCC cell growth in a cell viability assay.

KARPAS-299 = type: functional, cell-based, Homo sapiens; conditions: Homo sapiens, KARPAS-299
Description: SANGER: Inhibition of human KARPAS-299 cell growth in a cell viability assay.

OCUB-M = type: functional, cell-based; conditions: Homo sapiens;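 also: growth inhibition of the cancer cell line, read out through a cell viability assay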
Description: SANGER: Inhibition of human OCUB-M cell growth in a cell viability assay.

LB2241-RCC = type: functional, cell-based, Homo sapiens; conditions: Homo sapiens, LB2241-RCC;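 also: cell viability assay measuring how strongly the cultured human renal carcinoma line is prevented from growing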
Description: SANGER: Inhibition of human LB2241-RCC cell growth in a cell viability assay.

MHH-NB-11 = type: functional, cell-based, Homo sapiens; conditions: Homo sapiens, MHH-NB-11;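 also: growth inhibition of human MHH-NB-11 cells, read out by a cell viability assay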
Description: SANGER: Inhibition of human MHH-NB-11 cell growth in a cell viability assay.

SNB-75 = type: functional, cell-based, Homo sapiens; conditions: Homo sapiens, SNB-75;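 also: cell viability assay measuring growth inhibition of human SNB-75 cells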
Description: SANGER: Inhibition of human SNB75 cell growth in a cell viability assay.

LS-123 = type: functional, cell-based, Homo sapiens; conditions: Homo sapiens, LS-123
Description: SANGER: Inhibition of human LS-123 cell growth in a cell viability assay.

LU-134-A = type: functional, cell-based, Homo sapiens; conditions: Homo sapiens, LU-134-A
Description: SANGER: Inhibition of human LU-134-A cell growth in a cell viability assay.

LB1047-RCC = type: functional, cell-based, Homo sapiens; conditions: Homo sapiens, LB1047-RCC;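 also: inhibition of cell growth, determined with a cell viability assay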
Description: SANGER: Inhibition of human LB1047-RCC cell growth in a cell viability assay.

MHH-PREB-1 = type: functional, cell-based, Homo sapiens; conditions: Homo sapiens, MHH-PREB-1;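 also: cell viability assay measuring inhibition of proliferation of human MHH-PREB-1 cells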
Description: SANGER: Inhibition of human MHH-PREB-1 cell growth in a cell viability assay.

NCI-H747 = type: functional, cell-based, Homo sapiens; conditions: Homo sapiens, NCI-H747;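 also: growth inhibition of human NCI-H747 cells, read out by a cell viability assay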
Description: SANGER: Inhibition of human NCI-H747 cell growth in a cell viability assay.

HT = type: functional, cell-based, Homo sapiens; conditions: Homo sapiens, HT
Description: SANGER: Inhibition of human HT cell growth in a cell viability assay.

CW-2 = type: functional, cell-based, Homo sapiens; conditions: Homo sapiens, CW-2;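 also: growth inhibition of CW-2 cells, read out by a cell viability assay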
Description: SANGER: Inhibition of human CW-2 cell growth in a cell viability assay.

AU565 = type: functional, cell-based; conditions: Homo sapiens;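 also: cell viability assay measuring growth inhibition of human AU565 cells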
Description: SANGER: Inhibition of human AU565 cell growth in a cell viability assay.

SW 954 = type: functional, cell-based, Homo sapiens; conditions: Homo sapiens, SW 954;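 also: growth inhibition of SW954 human cancer cells, read out as cell viability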
Description: SANGER: Inhibition of human SW954 cell growth in a cell viability assay.

SK-MEL-2 = type: functional, cell-based, Homo sapiens; conditions: Homo sapiens, SK-MEL-2;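 also: growth inhibition of human SK-MEL-2 cells measured with a cell viability assay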
Description: SANGER: Inhibition of human SK-MEL-2 cell growth in a cell viability assay.

GCIY = type: functional, cell-based, Homo sapiens; conditions: Homo sapiens, GCIY;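 also: growth inhibition of the human GCIY cell line, read out by a cell viability assay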
Description: SANGER: Inhibition of human GCIY cell growth in a cell viability assay.

NCI-H1355 = type: functional, cell-based, Homo sapiens; conditions: Homo sapiens, NCI-H1355;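 also: growth inhibition of human NCI-H1355 cells, read out by a cell viability assay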
Description: SANGER: Inhibition of human NCI-H1355 cell growth in a cell viability assay.

JVM-3 = type: functional, cell-based, Homo sapiens; conditions: Homo sapiens, JVM-3;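 also: growth inhibition of human JVM-3 cells, read out with a cell viability assay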
Description: SANGER: Inhibition of human JVM-3 cell growth in a cell viability assay.

BFTC-905 = type: functional, cell-based; conditions: Homo sapiens
Description: SANGER: Inhibition of human BFTC-905 cell growth in a cell viability assay.

NB6 = type: functional, cell-based, Homo sapiens; conditions: Homo sapiens, NB6;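 also: growth inhibition of NB6 cells, read out by a cell viability assay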
Description: SANGER: Inhibition of human NB6 cell growth in a cell viability assay.

CP50-MEL-B = type: functional, cell-based; conditions: Homo sapiens;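 also: growth inhibition of the human cell line, measured with a cell viability read-out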
Description: SANGER: Inhibition of human CP50-MEL-B cell growth in a cell viability assay.

no-11 = type: functional, cell-based, Homo sapiens; conditions: Homo sapiens;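 also: growth inhibition of human NO-11 cells, read out with a cell viability assay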
Description: SANGER: Inhibition of human no-11 cell growth in a cell viability assay.

KNS-81-FD = type: functional, cell-based, Homo sapiens; conditions: Homo sapiens, KNS-81-FD;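 also: growth inhibition of KNS-81-FD cells, read out with a cell viability assay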
Description: SANGER: Inhibition of human KNS-81-FD cell growth in a cell viability assay.

EW-11 = type: functional, cell-based, Homo sapiens; conditions: Homo sapiens, EW-11;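 also: growth inhibition of human EW-11 cells, measured with a cell viability assay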
Description: SANGER: Inhibition of human EW-11 cell growth in a cell viability assay.

MEG-01 = type: functional, cell-based, Homo sapiens; conditions: Homo sapiens, MEG-01;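 also: growth inhibition of MEG-01 cells, read out by a cell viability assay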
Description: SANGER: Inhibition of human MEG-01 cell growth in a cell viability assay.

Calu-6 = type: functional, cell-based, Homo sapiens; conditions: Homo sapiens, Calu-6;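 also: growth of human Calu-6 cells, read out by a cell viability assay, IC50 marking inhibition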
Description: SANGER: Inhibition of human Calu-6 cell growth in a cell viability assay.

8-MG-BA = type: functional, cell-based, Homo sapiens; conditions: Homo sapiens, 8-MG-BA;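 also: growth inhibition of 8-MG-BA cells, read out with a cell viability assay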
Description: SANGER: Inhibition of human 8-MG-BA cell growth in a cell viability assay.

OCI-AML2 = type: functional, cell-based, Homo sapiens; conditions: Homo sapiens, OCI-AML2;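 also: growth inhibition of OCI-AML2 cells, read out with a cell viability assay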
Description: SANGER: Inhibition of human OCI-AML2 cell growth in a cell viability assay.

BB30-HNC = type: functional, cell-based, Homo sapiens; conditions: Homo sapiens, BB30-HNC;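 also: growth inhibition of the cultured cell line, read out by a cell viability assay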
Description: SANGER: Inhibition of human BB30-HNC cell growth in a cell viability assay.

NCI-H209 = type: functional, cell-based, Homo sapiens; conditions: Homo sapiens, NCI-H209;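 also: growth inhibition of human NCI-H209 cells, measured by a cell viability assay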
Description: SANGER: Inhibition of human NCI-H209 cell growth in a cell viability assay.

NTERA-2-cl-D1 = type: functional, cell-based, Homo sapiens; conditions: Homo sapiens, NTERA-2-cl-D1;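 also: inhibition of cell growth, measured with a cell viability assay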
Description: SANGER: Inhibition of human NTERA-S-cl-D1 cell growth in a cell viability assay.

KY821 = type: functional, cell-based, Homo sapiens; conditions: Homo sapiens, KY821;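 also: growth inhibition of human KY821 cells, read out by a cell viability assay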
Description: SANGER: Inhibition of human KY821 cell growth in a cell viability assay.

HOP-62 = type: functional, cell-based, Homo sapiens; conditions: Homo sapiens, HOP-62;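 also: cell growth inhibition determined with a viability assay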
Description: SANGER: Inhibition of human HOP-62 cell growth in a cell viability assay.

Structure (SMILES): CS(=O)(=O)N1CCN(Cc2cc3nc(-c4cccc5[nH]ncc45)nc(N4CCOCC4)c3s2)CC1 [PICTILISIB]
- IC50 (LB2518-MEL): > 4000 nM
- IC50 (TE-12): > 4000 nM
- IC50 (HDLM-2): 949 nM
- IC50 (GT3TKB): > 4000 nM
- IC50 (A3-KAW): > 4000 nM
- IC50 (TE-10): > 4000 nM
- IC50 (NCI-H1395): > 4000 nM
- IC50 (COLO-668): > 4000 nM
- IC50 (GB-1): > 4000 nM
- IC50 (MS-1): > 4000 nM
- IC50 (LC-2-ad): > 4000 nM
- IC50 (MV4-11): 724 nM
- IC50 (OS-RC-2): > 4000 nM
- IC50 (A4-Fuk): 1300 nM
- IC50 (NCI-H1299): > 4000 nM
- IC50 (KINGS-1): > 4000 nM
- IC50 (BB65-RCC): > 4000 nM
- IC50 (KARPAS-299): > 4000 nM
- IC50 (OCUB-M): > 4000 nM
- IC50 (LB2241-RCC): 304 nM
- IC50 (MHH-NB-11): > 4000 nM
- IC50 (SNB-75): 2020 nM
- IC50 (LS-123): > 4000 nM
- IC50 (LU-134-A): > 4000 nM
- IC50 (LB1047-RCC): 523 nM
- IC50 (MHH-PREB-1): 114 nM
- IC50 (NCI-H747): > 4000 nM
- IC50 (HT): 1130 nM
- IC50 (CW-2): > 4000 nM
- IC50 (AU565): 1320 nM
- IC50 (SW 954): > 4000 nM
- IC50 (SK-MEL-2): > 4000 nM
- IC50 (GCIY): 434 nM
- IC50 (NCI-H1355): > 4000 nM
- IC50 (JVM-3): 1650 nM
- IC50 (BFTC-905): 1130 nM
- IC50 (NB6): > 4000 nM
- IC50 (CP50-MEL-B): > 4000 nM
- IC50 (no-11): > 4000 nM
- IC50 (KNS-81-FD): > 4000 nM
- IC50 (EW-11): > 4000 nM
- IC50 (MEG-01): > 4000 nM
- IC50 (Calu-6): > 4000 nM
- IC50 (8-MG-BA): > 4000 nM
- IC50 (OCI-AML2): > 4000 nM
- IC50 (BB30-HNC): > 4000 nM

Structure (SMILES): CC(C)C[C@H](NC(=O)[C@H](Cc1ccccc1)NC(=O)c1cnccn1)B(O)O [BORTEZOMIB]
- IC50 (LB2518-MEL): 0.425 nM
- IC50 (TE-12): 4.25 nM
- IC50 (HDLM-2): > 20 nM
- IC50 (GT3TKB): 2.12 nM
- IC50 (A3-KAW): 1.28 nM
- IC50 (TE-10): 1.03 nM
- IC50 (NCI-H209): > 20 nM
- IC50 (NCI-H1395): > 20 nM
- IC50 (COLO-668): > 20 nM
- IC50 (GB-1): 1.81 nM
- IC50 (MS-1): > 20 nM
- IC50 (LC-2-ad): 1.08 nM
- IC50 (NTERA-2-cl-D1): 0.243 nM
- IC50 (MV4-11): 1.82 nM
- IC50 (KY821): > 20 nM
- IC50 (OS-RC-2): 0.44 nM
- IC50 (A4-Fuk): 0.623 nM
- IC50 (NCI-H1299): > 20 nM
- IC50 (KINGS-1): 0.722 nM
- IC50 (BB65-RCC): 0.304 nM
- IC50 (KARPAS-299): 3.06 nM
- IC50 (OCUB-M): 0.447 nM
- IC50 (LB2241-RCC): 0.804 nM
- IC50 (HOP-62): 0.647 nM
- IC50 (MHH-NB-11): 4.91 nM
- IC50 (SNB-75): 0.912 nM
- IC50 (LS-123): 2.02 nM
- IC50 (LU-134-A): 7.39 nM
- IC50 (LB1047-RCC): 2.57 nM
- IC50 (MHH-PREB-1): 4.86 nM
- IC50 (NCI-H747): 0.539 nM
- IC50 (HT): 3.02 nM
- IC50 (CW-2): 3.21 nM
- IC50 (SW 954): 2.9 nM
- IC50 (SK-MEL-2): > 20 nM
- IC50 (GCIY): 1.62 nM
- IC50 (NCI-H1355): 0.895 nM
- IC50 (JVM-3): 13 nM
- IC50 (NB6): 8.48 nM
- IC50 (no-11): 3.55 nM
- IC50 (KNS-81-FD): 2.48 nM
- IC50 (EW-11): > 20 nM
- IC50 (MEG-01): 3.49 nM
- IC50 (Calu-6): 1.29 nM
- IC50 (8-MG-BA): 0.25 nM
- IC50 (OCI-AML2): > 20 nM
- IC50 (BB30-HNC): 0.335 nM
